Experimental data reported in the NIST ThermoML archive (doi:10.1021/je100237h).

Details: 101.33 kPa, Liquid, Concentric cylinders viscometry

CCOC(=O)CCCCC(=O)OCC [diethyl hexanedioate]
Details	viscosity [mPa·s]
283.15 K	4.57
288.15 K	3.99
293.15 K	3.51
298.15 K	3.12
303.15 K	2.79
308.15 K	2.51
313.15 K	2.28
318.15 K	2.07
323.15 K	1.9
328.15 K	1.75
333.15 K	1.61
338.15 K	1.49
343.15 K	1.39
348.15 K	1.29
353.15 K	1.21
358.15 K	1.13
363.15 K	1.06
368.15 K	1
373.15 K	0.94
